Test results: publication PMC11053983, “Beyond One-Size-Fits-All: Tailoring Teicoplanin Regimens for Normal Renal Function Patients Using Population Pharmacokinetics and Monte Carlo Simulation” (Pharmaceutics, 2024)

Columns and labels:
[1] = Single 200 mg IV infusion (30 min) PK in 12 healthy adults, noncompartmental analysis; format: in vivo, human; details: n = 12; for Cmax: plasma, HPLC-MS/MS
Method: (§1) A 200 mg dose of teicoplanin in 100 mL of normal saline was administered intravenously to subjects over 30 min. Venous blood samples (6 mL each) were collected into heparinized tubes at 33, 36, 45, and 90 min, and 4, 8, 48–120, and 168–240 h after starting the infusion. Eight sampling points were used per subject to analyze PK parameters via noncompartmental and population PK methods.
(§2) Plasma levels of teicoplanin were quantified using tandem mass spectrometry coupled with HPLC (HPLC-MS/MS). The analytical system utilized included an LC-40 HPLC unit from Shimadzu Co. (Kyoto, Japan) paired with a Gemini C18 analytical column from Phenomenex (Torrance, CA, USA). A SCIEX 4500 QTRAP mass spectrometer (Sciex, Redwood City, CA, USA) facilitated the MS-based detection. Calibration standards were prepared by combining 100 μL of a reference solution with 10 μL of a vancomycin internal standard (concentration of 100 μg/mL) in microcentrifuge tubes. To this mixture, 400 μL of acetonitrile was added to precipitate proteins, followed by vortex mixing for 60 s. Following centrifugation at 12,000 rpm for 2 min at 4 °C, the clear supernatant was diluted 10-fold with deionized water. A 10 μL sample of this solution was then introduced into the HPLC-MS/MS for analysis. In a parallel procedure for plasma samples, after the addition of the vancomycin internal standard and acetonitrile-induced protein precipitation, the sample was processed like that of the calibration standard preparation before HPLC-MS/MS analysis. The teicoplanin concentration in the plasma was determined by comparing the peak area ratio of teicoplanin to the internal standard and employed a batch-specific calibration curve equation, adjusted for 1/x^2 weighting.
A noncompartmental analysis (NCA) was completed to evaluate the plasma concentration–time profiles of teicoplanin using the R programming language and the NonCompart package. The following PK parameters were assessed: maximum observed plasma concentration (Cmax), time of last measurable concentration (Tlast), concentration corresponding to Tlast (Clast), area under the plasma concentration–time curve (AUC) from the start of dosing to the last quantifiable concentration (AUClast), AUC from the start of dosing to infinity (AUCinf), area under the first moment curve (AUMC) from 0 h to the Tlast (AUMClast), AUMC extrapolated to infinity, based on the last observed concentration (AUMCinf), mean residence time from 0 h to infinite (MRTinf), total body clearance as determined through NCA (CLNCA), volume of distribution (Vd) determined via NCA (VzNCA), steady-state Vd determined via NCA (VssNCA), and terminal elimination half-life (t1/2λz). Cmax, Tlast, and Clast were determined directly from the observed data. AUClast and AUMClast were calculated employing the linear-up and log-down trapezoidal method. AUCinf was estimated by adding Clast/λz to AUClast, where λz is the terminal elimination rate constant, which was determined by log-linear regression of the terminal phase plasma concentrations. AUMCinf was calculated using the following formula: AUMClast + (Tlast × Clast)/λz + Clast/λz^2, MRTinf as AUMCinf/AUCinf—infusion time/2, CLNCA as dose/AUCinf, VzNCA as CLNCA/λz, VssNCA as MRTinf × CLNCA, and t1/2λz as ln(2)/λz.

[2] = Population PK analysis (NONMEM, three-compartment model), 12 healthy adults, 200 mg IV; format: in vivo; details: for CL, total clearance / AUC (dose/CL) / VC, central volume of distribution / Vss, steady-state volume of distribution: individual parameters; for CL, total clearance: n = 12; for 1st t1/2 / 2nd t1/2 / 3rd t1/2: three-compartment model
Method: as §1, §2
The PK analysis of teicoplanin was completed using a nonlinear mixed-effects modeling technique with NONMEM software (version 7.5, ICON Clinical Research LLC, North Wales, PA, USA). Parameter estimation for both the observed and the unaccounted-for random effects was achieved by applying the First-Order Conditional Estimation with Interaction approach. This method facilitates the consideration of interactions between the unexplained interindividual variability (IIV) of PK parameters and the residual unexplained variability in the observed concentrations. To model the PK profiles of teicoplanin, we used one-compartment (ADVAN1 TRANS2), two-compartment (ADVAN3 TRANS4), and three-compartment (ADVAN11 TRANS4) models which were based on first-order kinetics, with the exception of zero-order infusion processes.
Model selection and evaluation were based on several criteria: NONMEM’s objective function values (OFVs), parameter estimate precision (reflected by relative standard errors), IIV shrinkage, diagnostic fit plots, visual predictive checks, and bootstrap analysis. For nested model comparisons, a decrease in OFV (ΔOFV) exceeding 3.84 (for a χ^2 distribution with one degree of freedom, df) or 5.99 (for a χ^2 distribution with two df) indicated meaningful improvements at a significance level of p < 0.05. The diagnostic plots for model assessment include conditional weighted residuals (CWRES) against time and population predictions (PRED), as well as actual observations compared with both PRED and individual predictions. Visual predictive checks (VPC) were conducted by matching the observed concentrations to the 80% prediction intervals from 1000 simulations based on the final PK model. The variability in the final predictions was determined by calculating the median and 95% confidence intervals for the PK parameters from 2000 bootstrap samples.
Significant covariates affecting PK parameters were determined using stepwise selection, with inclusion at p < 0.01 (ΔOFV < −6.635) and exclusion at p < 0.001 (ΔOFV > 10.83) for one df. Covariates had to show statistical and clinical relevance. […]

[3] = human, in vivo; cited from earlier work
Text: Teicoplanin, along with the glycopeptide antibiotic vancomycin, has an important role in the treatment of Gram-positive bacterial infections, including those caused by methicillin-resistant Staphylococcus aureus (MRSA). […] Based on the European Medicines Agency’s summary of the product characteristics (SmPC) for teicoplanin, adults and the elderly with normal renal function have recommended specific do ...

[4] = cited from earlier work
Text: In the present study, the PK profile of teicoplanin in healthy adults was characterized using a three-compartment model. Typically, in studies with sparse sampling designs, the PK profile of teicoplanin is often delineated using one- [15, 16] or two-compartment models; however, previous studies using dense sampling approaches have also applied a three-compartment model. Such models are characterized by three distinct slopes when plotted on a graph with the y-axis representing a logarithmic scale, corresponding to the composition of three exponential equations ...

[5] = 12 mg/kg every 12 h x4, then 12 mg/kg daily; median CLCR 113 mL/min; cited from earlier work
[6] = human, in vivo; cited from earlier work; remark: listed apart in the source
Method: In the second simulation, the PTA was determined for different LD and MD regimens to satisfy both criteria: a Ctrough greater than 20 mg/L and an AUC/MIC ratio of at least 800. Adopting a similar approach to the first simulation, we used two distinct LD and MD combinations. The proportion of patients achieving both therapeutic targets was continuously assessed from days 3 to 7 following the initiation of treatment.

[7] = in vivo; cited from earlier work
Text: This study had several limitations. First, a small sample size of 12 subjects was insufficient to detect a variety of meaningful covariates, although eGFR and body weight were identified as significant factors. Thus, future studies with larger patient cohorts will be needed to develop more robust models. […] This decision, aimed at enhancing model stability and interpretability, involved employing the FOCE-I method and facing challenges with other estimation methods due to our ...

teicoplanin
t1/2λz, terminal elimination half-life ([1]; last 3 or 4 points, mean (CV%)): 54.6 (13.2%) h
AUCinf ([1]; mean (CV%)): 307 (15.4%) mg/L·h
AUClast ([1]; mean (CV%)): 273 (16.6%) mg/L·h
AUMCinf ([1]; mean (CV%)): 22,700 (14.8%) mg/L·h^2
AUMClast ([1]; mean (CV%)): 13,800 (16.0%) mg/L·h^2
CLNCA ([1]; mean (CV%)): 0.0105 (15.2%) L/h/kg
Clast ([1]; mean (CV%)): 0.431 (24.9%) mg/L
MRTinf ([1]; mean (CV%)): 74.0 (12.8%) h
VssNCA ([1]; mean (CV%)): 0.776 (19.6%) L/kg
AUCinf ([1]; median (IQR)): 305 (279–332) mg/L·h
AUClast ([1]; median (IQR)): 270 (247–302) mg/L·h
AUMCinf ([1]; median (IQR)): 22,300 (20,200–23,200) mg/L·h^2
AUMClast ([1]; median (IQR)): 13,800 (12,300–15,000) mg/L·h^2
CLNCA ([1]; median (IQR)): 0.0103 (0.00896–0.0117) L/h/kg
Clast ([1]; median (IQR)): 0.422 (0.348–0.470) mg/L
MRTinf ([1]; median (IQR)): 76.7 (68.0–80.7) h
Tlast ([1]; median (IQR)): 192 (169–194) h
VssNCA ([1]; median (IQR)): 0.734 (0.661–0.859) L/kg
t1/2λz, terminal elimination half-life ([1]; median (IQR)): 55.0 (51.9–58.6) h
Cmax ([1]; mean (CV%)): 32.1 (12.9%) mg/L
Cmax ([1]; median (IQR)): 30.9 (29.5–35.6) mg/L
Q2, bootstrap median (95% CI) ([2]; 2000 bootstrap samples): 4.45 (3.63–5.86) L/h
Q3, bootstrap median (95% CI) ([2]; 2000 bootstrap samples): 1.75 (1.44–2.13) L/h
V1, bootstrap median (95% CI) ([2]; 2000 bootstrap samples): 3.97 (3.15–4.62) L
V2, bootstrap median (95% CI) ([2]; 2000 bootstrap samples): 8.33 (7.07–9.85) L
θ1 (CL), bootstrap median (95% CI) ([2]; 2000 bootstrap samples): 0.693 (0.653–0.74) L/h
θ2, bootstrap median (95% CI) ([2]; 2000 bootstrap samples): 0.789 (0.422–1.16)
θ7 (V3), bootstrap median (95% CI) ([2]; 2000 bootstrap samples): 69.7 (55.8–82.6) L
θ8, bootstrap median (95% CI) ([2]; 2000 bootstrap samples): 1.73 (0.67–2.44)
CL typical value θ1, CL = θ1 × (CE/105.27)^θ2, estimate ([2]; final model estimate): 0.693 L/h
Q2 = θ4, intercompartmental clearance V1-V2, estimate ([2]; final model estimate): 4.45 L/h
Q3 = θ6, intercompartmental clearance V1-V3, estimate ([2]; final model estimate): 1.76 L/h
V1 = θ3, central volume of distribution, estimate ([2]; final model estimate): 3.96 L
V2 = θ5, first peripheral volume, estimate ([2]; final model estimate): 8.24 L
θ7, V3 = θ7 × (WT/67.85)^θ8, second peripheral volume, estimate ([2]; final model estimate): 69.8 L
θ8, exponent of weight on V3, estimate ([2]; final model estimate): 1.73
VSS typical value (V1 + V2 + V3) ([2]; healthy subjects): 82.0 L
CL, total clearance ([2]; mean (CV%)): 0.0107 (14.0%) L/h/kg
CL, total clearance ([2]; median (IQR)): 0.0104 (0.00961–0.0122) L/h/kg
AUC (dose/CL) ([2]; mean (CV%)): 299 (16.0%) mg/L·h
VC, central volume of distribution ([2]; mean (CV%)): 0.0644 (28.9%) L/kg
Vss, steady-state volume of distribution ([2]; mean (CV%)): 1.21 (23.0%) L/kg
AUC (dose/CL) ([2]; median (IQR)): 300 (263–316) mg/L·h
VC, central volume of distribution ([2]; median (IQR)): 0.0649 (0.0526–0.0733) L/kg
Vss, steady-state volume of distribution ([2]; median (IQR)): 1.24 (1.06–1.34) L/kg
1st t1/2 ([2]; mean (CV%)): 0.345 (36.3%) h
2nd t1/2 ([2]; mean (CV%)): 4.12 (22.2%) h
3rd t1/2 ([2]; mean (CV%)): 103 (29.9%) h
1st t1/2 ([2]; median (IQR)): 0.317 (0.289–0.417) h
2nd t1/2 ([2]; median (IQR)): 4.23 (3.78–4.83) h
3rd t1/2 ([2]; median (IQR)): 97.9 (83.1–116) h
elimination half-life [3]: 83 to 182 h
V1 [4]: 4.32 L
V2 [4]: 8.35 L
V3 [4]: 68.6 L
VSS [4]: 81.3 L
CL ([4]; mean 64 years, 69.1 kg, CLCR 72 mL/min): 0.490 L/h
steady-state Ctrough, median (range) [5]: 15.9 (8.8–29.9) mg/L
patients achieving AUC ≥800 mg/L·h [6]: 100%
linear PK range [7]: 2 to 25 mg/kg
